Experimental data reported in patent US11767323B2, “Tricyclic pyridone compounds as JAK2 V617F inhibitors” (Incyte Corporation, priority 2020, dated 2023).

Key:
[1] = target: catalytic domain (JH1, amino acids 826-1132) of human JAK2 (Homo sapiens (Human), UniProt O60674); experiment: JAK2 LanthaScreen JH1 Binding Assay; settings: JAK2 JH1 1.5 nM, 50 nM tracer, 2 hours at 25° C.; read-out: JH1 BIND IC50
Description: Example A. JAK2 LanthaScreen JH1 Binding Assay
JAK2 JH1 binding assay utilizes catalytic domain (JH1, amino acids 826-1132) of human JAK2 expressed as N-terminal FLAG-tagged, biotinylated protein in a baculovirus expression system (Carna Biosciences, Product #08-445-20N). The assay was conducted in black 384-well polystyrene plates in a final reaction volume of 20 μL. JAK2 JH1 (1.5 nM) was incubated with compounds (100 nL serially diluted in DMSO) in the presence of 50 nM Fluorescent JAK2-JH1 Tracer and 0.5 nM Streptavidin-Tb cryptate (Cisbio Part #610SATLB) in assay buffer (50 mM Tris, pH=7.5, 10 mM MgCl2, 0.01% Brij-35, 0.1% BSA, 1 mM EGTA, 5% Glycerol and 5 mM DTT). Non-specific binding was accessed in the presence of 2 mM ATP. After incubation for 2 hours at 25° C., LanthaScreen signals were read on a PHERAstar FS plate reader (BMG LABTECH). Data was analyzed with IDBS XLfit and GraphPad Prism 5.0 software using a four parameter dose response curve to determine IC50 for each compound.

[2] = target: pseudo-kinase domain (JH2, amino-acids 536-812) of human Wild Type JAK2 (Homo sapiens (Human), UniProt O60674, F794H/W659A/W777A); experiment: JAK2 LanthaScreen JH2-WT Binding Assay; settings: JAK2 JH2-WT 0.145 nM, 50 nM tracer, 1 hour at 25° C.; read-out: JH2 BIND WT IC50
Description: Example B. JAK2 LanthaScreen JH2-WT Binding Assay
(§1) JAK2 JH2-WT binding assay utilizes pseudo-kinase domain (JH2, amino-acids 536-812 with 3 surface mutations W659A, W777A, F794H) of human Wild Type JAK2 expressed as C-terminal His-Avi-tagged, biotinylated protein in a baculovirus expression system (BPS Bioscience, Catalog #79463). The assay was conducted in black 384-well polystyrene plates in a final reaction volume of 20 μL. JAK2 JH2-WT (0.145 nM) was incubated with compounds (100 nL serially diluted in DMSO) in the presence of 50 nM Fluorescent JAK2-JH2 Tracer (MedChem Express Catalog #HY-102055) and 0.25 nM Streptavidin-Tb cryptate (Cisbio Part #610SATLB) in assay buffer (50 mM Tris, pH=7.5, 10 mM MgCl2, 0.01% Brij-35, 0.1% BSA, 1 mM EGTA, 5% Glycerol and 5 mM DTT). Non-specific binding was accessed in the presence of 2 mM ATP. After incubation for 1 hour at 25° C., LanthaScreen signals were read on a PHERAstar FS plate reader (BMG LAB TECH). Data was analyzed with IDBS XLfit and GraphPad Prism 5.0 software using a four parameter dose response curve to determine IC50 for each compound.

[3] = target: pseudo-kinase domain (JH2, amino-acids 536-812) of human V617F mutant JAK2 (Homo sapiens (Human), UniProt O60674, F794H/V617F/W659A/W777A); experiment: JAK2 LanthaScreen JH2-V617F Binding Assay; settings: JAK2 JH2-V617F 0.26 nM, 50 nM tracer, 1 hour at 25° C.; read-out: JH2 BIND V617F IC50
Description: Example C. JAK2 LanthaScreen JH2-V617F Binding Assay
as §1, with “JH2-V617F” for “JH2-WT”, “V617F mutant” for “Wild Type”, “#79498).” for “#79463).”, “JH2-V617F (0.26” for “JH2-WT (0.145”, “LABTECH).” for “LAB TECH).”

[4] = target: catalytic domain (JH1, amino acids 808-1132) of human JAK2 (Homo sapiens (Human), UniProt O60674); experiment: JAK2 HTRF Enzyme Activity Assay; type: biochemical; settings: JAK2 0.015 nM, ATP (30 μM or 1 mM), 60 minutes at 25° C.
Description: Example D. JAK2 HTRF Enzyme Activity Assay
JAK2 enzyme activity assays utilize catalytic domain (JH1, amino acids 808-1132) of human JAK2 expressed as N-terminal His-tagged protein in a baculovirus expression system (BPS Bioscience, Catalog #40450). The assays was conducted in black 384-well polystyrene plates in a final reaction volume of 20 μL. JAK2 (0.015 nM) was incubated with compounds (100 nL serially diluted in DMSO) in the presence of ATP (30 μM or 1 mM) and 500 nM Biotin-labeled EQEDEPEGDYFEWLE (SEQ ID NO.: 1) peptide (BioSource International, custom synthesis) in assay buffer (50 mM Tris, pH=7.5, 10 mM MgCl2, 0.01% Brij-35, 0.1% BSA, 1 mM EGTA, 5% Glycerol and 5 mM DTT) for 60 minutes at 25° C. The reactions were stopped by the addition of 10 μL of detection buffer (50 mM Tris, pH 7.8, 0.5 mg/mL BSA, 150 mM NaCl), supplemented with EDTA, LANCE Eu-W1024 anti-phosphotyrosine (PY20), (PerkinElmer, Catalog #AD0067) and Streptavidin SureLight APC (PerkinElmer Catalog #CR130-100), for a final concentration of 15 mM, 1.5 nM and 75 nM, respectively. HTRF signals were read after 30 minutes incubation at room temperature on a PHERAstar FS plate reader (BMG LAB TECH). Data was analyzed with IDBS XLfit and GraphPad Prism 5.0 software using a four parameter dose response curve to determine IC50 for each compound.

Sequence of pseudo-kinase domain (JH2, amino-acids 536-812) of human V617F mutant JAK2 (O60674 536-812 V617F/W659A/W777A/F794H): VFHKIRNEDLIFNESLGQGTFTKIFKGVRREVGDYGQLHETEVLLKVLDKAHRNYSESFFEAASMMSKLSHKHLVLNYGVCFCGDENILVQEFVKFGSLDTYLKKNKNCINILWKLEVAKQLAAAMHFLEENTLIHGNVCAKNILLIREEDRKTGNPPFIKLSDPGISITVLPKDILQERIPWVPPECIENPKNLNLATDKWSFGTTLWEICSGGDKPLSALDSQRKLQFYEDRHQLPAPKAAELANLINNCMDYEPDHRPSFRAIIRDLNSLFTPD
Sequence of pseudo-kinase domain (JH2, amino-acids 536-812) of human Wild Type JAK2 (O60674 536-812 W659A/W777A/F794H): as the sequence (O60674 536-812 V617F/W659A/W777A/F794H) above, with F82V counted along it
Sequence of catalytic domain (JH1, amino acids 826-1132) of human JAK2 (O60674 826-1132): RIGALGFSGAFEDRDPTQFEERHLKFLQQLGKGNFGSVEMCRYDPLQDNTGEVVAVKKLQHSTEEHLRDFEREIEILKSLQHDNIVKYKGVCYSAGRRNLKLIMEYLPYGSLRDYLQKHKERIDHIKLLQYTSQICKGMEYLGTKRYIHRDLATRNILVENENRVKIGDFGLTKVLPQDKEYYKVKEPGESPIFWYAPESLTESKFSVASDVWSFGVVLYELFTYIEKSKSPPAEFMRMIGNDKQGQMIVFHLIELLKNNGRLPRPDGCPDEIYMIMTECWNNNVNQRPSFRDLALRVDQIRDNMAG
Sequence of catalytic domain (JH1, amino acids 808-1132) of human JAK2 (O60674 808-1132): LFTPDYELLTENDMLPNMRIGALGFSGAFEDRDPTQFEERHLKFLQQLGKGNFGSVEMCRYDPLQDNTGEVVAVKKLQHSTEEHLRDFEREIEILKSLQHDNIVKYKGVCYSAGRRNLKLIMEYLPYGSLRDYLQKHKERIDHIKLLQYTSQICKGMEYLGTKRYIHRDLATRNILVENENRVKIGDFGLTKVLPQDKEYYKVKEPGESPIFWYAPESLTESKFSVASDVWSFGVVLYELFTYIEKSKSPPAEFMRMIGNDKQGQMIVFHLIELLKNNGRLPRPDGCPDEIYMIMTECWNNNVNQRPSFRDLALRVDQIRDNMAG

Row | SMILES | IC50 [1] | IC50 [2] | IC50 [3] | IC50 [4]
1 | CS(=O)(=O)C1CCN(Cc2ccc(-c3cc4c(ncc5[nH]c(=O)c(-c6ccccc6)cc54)[nH]3)cc2)CC1 [Example 1, 2-(4-((4-(Methylsulfonyl)piperidin-1-yl)methyl)phenyl)-8-phenyl-3,6-dihydro-7H-pyrrolo[3,2-f][1,7]naphthyridin-7-one] | 1000 to 10000 nM | 1000 to 10000 nM | 1000 to 10000 nM | > 10000 nM
2 | CS(=O)(=O)C1CCN(Cc2ccc(-c3cc4c(ncc5[nH]c(=O)c(-c6ccc(C(=O)O)cc6)cc54)[nH]3)cc2)CC1 [Example 2, 4-(2-(4-((4-(Methylsulfonyl)piperidin-1-yl)methyl)phenyl)-7-oxo-6,7-dihydro-3H-pyrrolo[3,2-f][1,7]naphthyridin-8-yl)benzoic acid] | > 10000 nM | ≤ 100 nM | ≤ 100 nM | > 10000 nM
3 | CS(=O)(=O)C1CCN(Cc2ccc(-c3cc4c(ncc5[nH]c(=O)c(C#N)cc54)[nH]3)cc2)CC1 [Example 3, 2-(4-((4-(Methylsulfonyl)piperidin-1-yl)methyl)phenyl)-7-oxo-6,7-dihydro-3H-pyrrolo[3,2-f][1,7]naphthyridine-8-carbonitrile] | > 10000 nM | 1000 to 10000 nM | 1000 to 10000 nM | > 10000 nM
4 | Cn1nccc1-c1cc2c(cnc3[nH]c(-c4ccc(CN5CCC(S(C)(=O)=O)CC5)cc4)cc32)[nH]c1=O [Example 4, 8-(1-Methyl-1H-pyrazol-5-yl)-2-(4-((4-(methylsulfonyl)piperidin-1-yl)methyl)phenyl)-3,6-dihydro-7H-pyrrolo[3,2-f][1,7]naphthyridin-7-one] | 1000 to 10000 nM | 1000 to 10000 nM | 1000 to 10000 nM | 1000 to 10000 nM
5 | CS(=O)(=O)C1CCN(Cc2ccc(-c3cc4c(ncc5[nH]c(=O)c(-c6nnn[nH]6)cc54)[nH]3)cc2)CC1 [Example 5, 2-(4-((4-(Methylsulfonyl)piperidin-1-yl)methyl)phenyl)-8-(1H-tetrazol-5-yl)-3,6-dihydro-7H-pyrrolo[3,2-f][1,7]naphthyridin-7-one] | > 10000 nM | 500 to 1000 nM | 1000 to 10000 nM | 1000 to 10000 nM
6 | Cc1c(-c2ccc(C(=O)O)cc2)c(=O)[nH]c2cnc3[nH]c(-c4ccc(CN5CCC(S(C)(=O)=O)CC5)cc4)cc3c12 [Example 6, 4-(9-Methyl-2-(4-((4-(methylsulfonyl)piperidin-1-yl)methyl)phenyl)-7-oxo-6,7-dihydro-3H-pyrrolo[3,2-f][1,7]naphthyridin-8-yl)benzoic acid] | > 10000 nM | ≤ 100 nM | ≤ 100 nM | > 10000 nM
7 | Cc1c(-c2ccc(-n3cnnn3)cc2)c(=O)[nH]c2cnc3[nH]c(-c4ccc(CN5CCC(S(C)(=O)=O)CC5)cc4)cc3c12 [Example 7, 8-(4-(1H-Tetrazol-1-yl)phenyl)-9-methyl-2-(4-((4-(methylsulfonyl)piperidin-1-yl)methyl)phenyl)-3,6-dihydro-7H-pyrrolo[3,2-f][1,7]naphthyridin-7-one] | 1000 to 10000 nM | 100 to 500 nM | 1000 to 10000 nM | 1000 to 10000 nM
8 | Cc1c(-c2ccc(C(=O)O)cc2)c(=O)n(C)c2cnc3[nH]c(-c4ccc(CN5CCC(S(C)(=O)=O)CC5)cc4)cc3c12 [Example 8, 4-(6,9-Dimethyl-2-(4-((4-(methylsulfonyl)piperidin-1-yl)methyl)phenyl)-7-oxo-6,7-dihydro-3H-pyrrolo[3,2-f][1,7]naphthyridin-8-yl)benzoic acid] | 100 to 500 nM | ≤ 100 nM | ≤ 100 nM | 100 to 500 nM
9 | Cc1ccc(-c2c(C)c3c4cc(-c5ccc(CN6CCC(S(C)(=O)=O)CC6)cc5)[nH]c4ncc3n(C)c2=O)cc1 [Example 9, 6,9-Dimethyl-2-(4-((4-(methylsulfonyl)piperidin-1-yl)methyl)phenyl)-8-(p-tolyl)-3,6-dihydro-7H-pyrrolo[3,2-f][1,7]naphthyridin-7-one] | ≤ 100 nM | ≤ 100 nM | ≤ 100 nM | ≤ 100 nM
10 | Cc1c(-c2ccc(Cl)cc2)c(=O)n(C)c2cnc3[nH]c(-c4ccc(CN5CCC(S(C)(=O)=O)CC5)cc4)cc3c12 [Example 10, 8-(4-Chlorophenyl)-6,9-dimethyl-2-(4-((4-(methylsulfonyl)piperidin-1-yl)methyl)phenyl)-3,6-dihydro-7H-pyrrolo[3,2-f][1,7]naphthyridin-7-one] | 100 to 500 nM | ≤ 100 nM | ≤ 100 nM | 100 to 500 nM
11 | Cc1c(-c2cccc(Cl)c2)c(=O)n(C)c2cnc3[nH]c(-c4ccc(CN5CCC(S(C)(=O)=O)CC5)cc4)cc3c12 [Example 11, 8-(3-Chlorophenyl)-6,9-dimethyl-2-(4-((4-(methylsulfonyl)piperidin-1-yl)methyl)phenyl)-3,6-dihydro-7H-pyrrolo[3,2-f][1,7]naphthyridin-7-one] | ≤ 100 nM | ≤ 100 nM | ≤ 100 nM | ≤ 100 nM
12 | COc1ccc(-c2c(C)c3c4cc(-c5ccc(CN6CCC(S(C)(=O)=O)CC6)cc5)[nH]c4ncc3n(C)c2=O)cc1 [Example 12, 8-(4-Methoxyphenyl)-6,9-dimethyl-2-(4-((4-(methylsulfonyl)piperidin-1-yl)methyl)phenyl)-3,6-dihydro-7H-pyrrolo[3,2-f][1,7]naphthyridin-7-one] | 100 to 500 nM | ≤ 100 nM | ≤ 100 nM | ≤ 100 nM
13 | Cc1c(-c2ccc(C#N)cc2)c(=O)n(C)c2cnc3[nH]c(-c4ccc(CN5CCC(S(C)(=O)=O)CC5)cc4)cc3c12 [Example 13, 4-(6,9-Dimethyl-2-(4-((4-(methylsulfonyl)piperidin-1-yl)methyl)phenyl)-7-oxo-6,7-dihydro-3H-pyrrolo[3,2-f][1,7]naphthyridin-8-yl)benzonitrile] | 100 to 500 nM | ≤ 100 nM | ≤ 100 nM | 100 to 500 nM
